Measured values as given in patent US20150148304A1, “Novel Peptides and Analogs for Use in the Treatment of Macrophage Activation Syndrome” (Soligenix, Inc., priority 2013, published 2015).
No end group written: not given here.

Key:
human normal blood cells = assay: proliferation of normal blood cells in vitro (human); type: cell-based
[1] = system: battery of CNS receptors and ion channels; assay: interaction with a battery of CNS receptors and ion channels in vitro; type: binding
Experimental: No effects of RIVPA (SEQ ID NO. 5) have been observed on the central nervous system (CNS) in any study at any dose level and little or no radiolabelled RIVPA (SEQ ID NO. 5) was found in the mouse CNS at dose levels of either 20 or 90 mg/kg.

[2] = GLP 14-day repeat-dose IV toxicity study in mice; type: in vivo, mouse
Experimental: (§1) Two pilot and 2 definitive repeat-dose toxicity studies were conducted with RIVPA (SEQ ID NO. 5) in mice and cynomolgus monkeys using the intravenous (IV; slow bolus) route of administration.
The safety of multiple daily injections of RIVPA (SEQ ID NO. 5) has also been evaluated in GLP studies in mice and cynomolgus monkeys. In mouse, doses of 20, 60, or 90 mg/kg/day were given IV for 14 days. […] In survivors of all groups, there was no evidence of toxicity in any organ or abnormal biochemistry or hematology.
(§2) In the latter study, no effect on T-cell, B-cell or NK-cell counts was observed after 14 days of intravenous RIVPA (SEQ ID NO. 5) dosing in the NHP. […] Collectively, there is no indication of a potential for RIVPA (SEQ ID NO. 5) to cause immunotoxicity or non-specific immune activation. No hyperactivation or suppression of adaptive immune responses, or other impact on the phenotypes of cells associated with adaptive immunity, has been detected following RIVPA (SEQ ID NO. 5) administration.

[3] = Phase 1 study in healthy volunteers, pharmacokinetics; type: in vivo, human
Text: Following IV administration in human subjects and consistent with findings in animal studies, RIVPA (SEQ ID NO. 5) is cleared from the circulation within minutes. […] Following the rapid decline, a slower elimination phase was observed. […] Maximum plasma concentrations and total exposure levels were dose-proportional and clearance of RIVPA (SEQ ID NO. 5) from the circulation was rapid, consistent with the mouse and NHP experience.
In light of the high clearance and short elimination half-life, accumulation following daily injection was not expected to occur.

[4] = GLP 14-day repeat-dose IV toxicity study in cynomolgus monkeys; type: in vivo
Experimental: as §1
RIVPA (SEQ ID NO. 5) at 20, 80, 160 mg/kg/day was given IV to cynomolgus monkeys for 14 days. […] In all cases, these clinical signs resolved within a few minutes. […] A dose level of 80 mg/kg/day was considered to be the No-Observed-Adverse-Effect-Level (NOAEL) for this study.
Overall, the NOAEL is considered to be 80 mg/kg/day for cynomolgus monkeys since transient clinical signs were limited to a single study and occurred in only 2 instances of the 98 administrations of the drug at this dose level.
as §2

[5] = system: macrophage activation syndrome model; assay: CpG (TLR-9 agonist) induced model of macrophage activation syndrome; type: in vivo, C57BL/6 mice
Experimental: Macrophage activation syndrome was simulated in 8-10 week old C57BL/6 mice by repeated administration of the TLR-9 agonist, CpG. CpG (35 μg in 200 μL) or Saline was administered intraperitoneally (IP) on days 0, 2, 4, 7 and 9. SGX94 (200 mg/kg IP) or Saline was administered on days 1, 4 and 7. […] In a repeat study, the same model was used to test administration of saline (Days 1, 4 and 7; control); RIVPA (SEQ ID NO. 5) at 200 mg/kg administered on Days 1, 4 and 7, 400 mg/kg administered on Day 1, 4 and 7 and 400 mg/kg administered on Days 1; 3, 5 and 7. In this experiment CpG (35 μg) was administered on days 0, 2, 4, 7 and 10 and no saline-stimulated controls were used.

[6] = Day 8, 200 mg/kg IP days 1, 4 and 7, relative to CpG stimulated, saline treated group
[7] = Day 10, serum, 200 mg/kg IP, first study
[8] = repeat study, 200 mg/kg Days 1, 4, 7, 400 mg/kg Days 1, 4, 7, 400 mg/kg Days 1, 3, 5, 7

## RIVPA-NH2 [RIVPA, L-arginyl-L-isoleucyl-L-valyl-L-prolyl-L-alanine-amide]
Human normal blood cells
  proliferation of human normal blood cells: did not promote the proliferation
[1]
  interaction with CNS receptors and ion channels: No interaction was detected
[2]; 20 mg/kg/day IV for 14 days, mouse
  adverse effects at 20 mg/kg: No adverse effects were observed
[2]; 60 mg/kg/day IV for 14 days, mouse
  mortality at 60 mg/kg: Lethality was also observed in 1 animal
[2]; 90 mg/kg/day IV for 14 days, mouse
  mortality at high dose: Deaths were observed
[2]; mouse 14-day toxicity study
  immune-related organ weights, histopathology, hematology and clinical chemistry: no changes were observed
[3]; daily IV for 7 days, all subjects
  pre-dose concentrations on Days 5, 6, 7 and Day 8: below the lower limit of quantitation
[3]; human, plasma, intravenous, after start of infusion, dose range 0.15 mg/kg to 8 mg/kg, read-out: mean time of maximum concentration (Tmax)
  Tmax: 4 to 4.8 min
[3]; single-dose phase, 4-minute IV infusion
  time after start of infusion for plasma levels to decrease to less than 10 percent of Cmax: ≤ 9 min
[3]; single-dose phase, IV
  maximum plasma concentrations and total exposure levels versus dose: dose-proportional
[4]; 160 mg/kg/day IV for 14 days, cynomolgus monkeys, during and shortly after dosing
  clinical signs at 160 mg/kg: Transient decreased activity and partially closed eyes
[4]; 20 and 80 mg/kg/day IV for 14 days, cynomolgus monkeys
  toxicity at 20 and 80 mg/kg/day: did not result in any evidence of toxicity
[4]; NHP 14-day toxicity study
  immune-related organ weights, histopathology, hematology and clinical chemistry: no changes were observed
[4]; after 14 days of intravenous dosing in the NHP
  T-cell, B-cell or NK-cell counts: no effect
[4]; cynomolgus monkey, in vivo, IV for 14 days, cynomolgus monkeys, read-out: No-Observed-Adverse-Effect-Level (NOAEL) for this study
  NOAEL at 14 days: 80 mg/kg/day
[4]; overall across studies, IV
  overall NOAEL for cynomolgus monkeys: 80 mg/kg/day
[5]; [6]
  platelet counts: increased
  white blood cell counts: significantly increased
[5]; Day 10, 200 mg/kg IP, relative to CpG stimulated, saline-treated group
  body weights: increased
[5]; [7]
  IFNγ levels: not significantly altered
  IL-10 levels: not significantly altered
[5]; Day 10, serum, 200 mg/kg IP, relative to CpG stimulated, saline-treated group
  IL-12 levels: decreased
[5]; relative to saline stimulated, saline treated control
  changes in saline stimulated, RIVPA treated group: no significant changes
[5]; repeat study
  IFNγ levels: no significant changes
[5]; [8]
  platelet count: statistically significant increase
  white blood cell count: statistically significant increase
